# Measurements taken from patent EP3623369A1, “NOVEL MORPHOLINYL AMINE COMPOUNDS FOR THE TREATMENT OF AUTOIMMUNE DISEASE” (F. Hoffmann-La Roche AG, priority 2018, dated 2020).
# Biological target: T1, hTLR9 (Homo sapiens, UniProt Q9NR96)
# T1 sequence (Q9NR96 26-1032): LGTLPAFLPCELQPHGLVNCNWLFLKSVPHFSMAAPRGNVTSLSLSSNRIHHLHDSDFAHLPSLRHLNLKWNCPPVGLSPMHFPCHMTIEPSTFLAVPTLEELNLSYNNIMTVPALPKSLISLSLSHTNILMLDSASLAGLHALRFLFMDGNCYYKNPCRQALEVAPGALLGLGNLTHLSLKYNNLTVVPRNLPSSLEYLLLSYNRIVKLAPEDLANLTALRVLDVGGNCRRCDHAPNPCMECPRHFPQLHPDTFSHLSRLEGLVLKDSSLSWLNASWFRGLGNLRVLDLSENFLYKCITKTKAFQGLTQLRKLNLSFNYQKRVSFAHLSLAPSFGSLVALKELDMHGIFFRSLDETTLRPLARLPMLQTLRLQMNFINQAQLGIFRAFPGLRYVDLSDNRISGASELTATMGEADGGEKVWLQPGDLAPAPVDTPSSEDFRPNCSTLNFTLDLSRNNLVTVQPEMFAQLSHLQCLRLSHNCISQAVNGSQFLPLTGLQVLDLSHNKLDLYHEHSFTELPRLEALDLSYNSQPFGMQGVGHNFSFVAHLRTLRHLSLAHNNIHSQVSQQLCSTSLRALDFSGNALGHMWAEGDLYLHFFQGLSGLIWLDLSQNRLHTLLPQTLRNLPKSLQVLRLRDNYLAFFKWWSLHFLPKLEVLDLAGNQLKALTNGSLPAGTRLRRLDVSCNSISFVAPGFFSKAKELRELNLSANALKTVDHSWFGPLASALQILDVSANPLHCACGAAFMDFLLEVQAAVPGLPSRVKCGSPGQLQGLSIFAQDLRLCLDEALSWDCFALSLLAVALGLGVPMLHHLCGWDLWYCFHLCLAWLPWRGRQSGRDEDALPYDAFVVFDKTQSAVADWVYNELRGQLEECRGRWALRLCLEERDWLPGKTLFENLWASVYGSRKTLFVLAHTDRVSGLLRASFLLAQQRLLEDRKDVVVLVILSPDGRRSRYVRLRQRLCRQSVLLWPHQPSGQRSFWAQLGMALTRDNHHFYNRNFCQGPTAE
# Assay: HEK293-Blue-hTLR-9 cells assay (SEAP reporter, ODN2006 stimulation)
# Assay type: cell-based
# Details: HEK293-Blue-hTLR9 cells, ODN2006, 20 hrs; 0.032 is the lowest tested concentration; read-out: HEK/hTLR9 IC50
# Procedure: The following tests were carried out in order to determine the activity of the compounds of formula (I) or (Ia) in HEK293-Blue-hTLR-7/8/9 cells assay.
# HEK293-Blue-hTLR-9 cells assay:
# A stable HEK293-Blue-hTLR-9 cell line was purchased from InvivoGen (Cat.#: hkb-htlr9, San Diego, California, USA). These cells were originally designed for studying the stimulation of human TLR9 by monitoring the activation of NF-κB. A SEAP (secreted embryonic alkaline phosphatase) reporter gene was placed under the control of the IFN-β minimal promoter fused to five NF-κB and AP-1-binding sites. The SEAP was induced by activating NF-κB and AP-1 via stimulating HEK-Blue hTLR9 cells with TLR9 ligands. Therefore the reporter expression was declined by TLR9 antagonist under the stimulation of a ligand, such as ODN2006 (Cat.#: tlrl-2006-1, Invivogen, San Diego, California, USA), for incubation of 20 hrs. The cell culture supernatant SEAP reporter activity was determined using QUANTI-Blue™ kit (Cat.#: rep-qb1, Invivogen, San Diego, California, USA) at a wavelength of 640 nm, a detection medium that turns purple or blue in the presence of alkaline phosphatase.
# HEK293-Blue-hTLR9 cells were incubated at a density of 250,000∼450,000 cells/mL in a volume of 170 µL in a 96-well plate in Dulbecco's Modified Eagle's medium (DMEM) containing 4.5 g/L glucose, 50 U/mL penicillin, […], […], 2 mM L-glutamine, 10% (v/v) heat-inactivated fetal bovine serum with addition of 20 µL test compound in a serial dilution in the presence of final DMSO at 1% and 10 µL of 20uM ODN2006 in above DMEM, perform incubation under 37 °C in a CO2 incubator for 20 hrs. Then 20 µL of the supernatant from each well was incubated with 180 µL Quanti-blue substrate solution at 37 °C for 2 hrs and the absorbance was read at 620∼655 nm using a spectrophotometer. The signalling pathway that TLR9 activation leads to downstream NF-κB activation has been widely accepted, and therefore similar reporter assay was modified for evaluating TLR9 antagonist.
row,Compound,IC50
1,"C[C@@H]1CN(c2ccc(C#N)n3nccc23)C[C@H](CN2Cc3ccc(OCCN(C)C)cc3C2)O1 [Example 28, 4-[(2S,6R)-2-[[5-[2-(dimethylamino)ethoxy]isoindolin-2-yl]methyl]-6-methyl-morpholin-4-yl]pyrazolo[1,5-a]pyridine-7-carbonitrile]",93 nM
2,"C[C@@H]1CN(c2ccc(C#N)c3nccnc23)C[C@H](CNCc2ccc(N3CCNCC3)cc2)O1 [Example 84, 8-[(2R,6S)-2-methyl-6-[[(4-piperazin-1-ylphenyl)methylamino]methyl]morpholin-4-yl]quinoxaline-5-carbonitrile]",50 nM
3,"C[C@@H]1CN(c2ccc(C#N)c3ncccc23)C[C@H](CN2Cc3ccc(N4CC5CCC(C4)N5)cc3C2)O1 [Example 42, 5-[(2S,6R)-2-[[5-(3,8-diazabicyclo[3.2.1]octan-3-yl)isoindolin-2-yl]methyl]-6-methyl-morpholin-4-yl]quinoline-8-carbonitrile]",97 nM
4,"C[C@@H]1CN(c2ccc(C#N)c3ncccc23)C[C@H](CN2Cc3ccc(N4CC(N)C4)cc3C2)O1 [Example 77, 5-[(2S,6R)-2-[[5-(3-aminoazetidin-1-yl)isoindolin-2-yl]methyl]-6-methyl-morpholin-4-yl]quinoline-8-carbonitrile]",239 nM
5,"C[C@@H]1CN(c2ccc(C#N)c3nccnc23)C[C@H](CN2Cc3cnc(N4CCNCC4)cc3C2)O1 [Example 60, 8-[(2R,6S)-2-methyl-6-[(6-piperazin-1-yl-1,3-dihydropyrrolo[3,4-c]pyridin-2-yl)methyl]morpholin-4-yl]quinoxaline-5-carbonitrile]",46 nM
6,"C[C@@H]1CN(c2ccc(C#N)c3ncccc23)C[C@H](CN2Cc3ccc(N4C5CCC4CNC5)cc3C2)O1 [Example 43, 5-[(2S,6R)-2-[[5-(3,8-diazabicyclo[3.2.1]octan-8-yl)isoindolin-2-yl]methyl]-6-methyl-morpholin-4-yl]quinoline-8-carbonitrile]",88 nM
7,"C[C@@H]1CN(c2ccc(C#N)c3ncccc23)C[C@H](CNCc2ccccc2)O1 [ER-886509, reference compound]",2080 nM
8,"C[C@@H]1CN(c2ccc(C#N)c3nccnc23)C[C@H](CN2Cc3cc(N4CCNCC4)cnc3C2)O1 [Example 30, 8-[(2R,6S)-2-methyl-6-[(3-piperazin-1-yl-5,7-dihydropyrrolo[3,4-b]pyridin-6-yl)methyl]morpholin-4-yl]quinoxaline-5-carbonitrile]",136 nM
9,"C[C@@H]1CN(c2ccc(C#N)c3ncccc23)C[C@H](CN2CCc3cc(N4CCNCC4)ccc3C2)O1 [Example 19, 5-[(2R,6S)-2-methyl-6-[(6-piperazin-1-yl-3,4-dihydro-1H-isoquinolin-2-yl)methyl]morpholin-4-yl]quinoline-8-carbonitrile]",64 nM

# Further compounds by falling IC50, results first:
row,IC50,Compound
1,47000 nM,"C[C@@H]1CN(c2ccc(C#N)n3nccc23)C[C@H](CN2Cc3ccncc3C2)O1 [Example R2, 4-[(2S,6R)-2-(1,3-dihydropyrrolo[3,4-c]pyridin-2-ylmethy1)-6-methyl-morpholin-4-yl]pyrazolo[1,5-a]pyridine-7-carbonitrile, reference compound]"
2,221 nM,"COC(=O)C1CN(c2ccc3c(c2)CN(C[C@H]2CN(c4ccc(C#N)c5ncccc45)C[C@@H](C)O2)C3)CCN1 (stereo partly drawn) [Example 67, Methyl 4-[2-[[(2S,6R)-4-(8-cyano-5-quinolyl)-6-methyl-morpholin-2-yl]methyl]isoindolin-5-yl] piperazine-2-carboxylate]"
3,134 nM,"C[C@@H]1CN(c2ccc(C#N)n3ncc(F)c23)C[C@H](CN2Cc3cc(N4CCNCC4)cnc3C2)O1 [Example 29, 3-fluoro-4-[(2R,6S)-2-methyl-6-[(3-piperazin-1-yl-5,7-dihydropyrrolo[3,4-b]pyridin-6-yl)methyl]morpholin-4-yl]pyrazolo[1,5-a]pyridine-7-carbonitrile]"
4,120 nM,"C[C@@H]1CN(c2ccc(C#N)c3ncccc23)C[C@H](CN2Cc3cnc(N4CCNCC4)nc3C2)O1 [Example 63, 5-[(2R,6S)-2-methyl-6-[(2-piperazin-1-yl-5,7-dihydropyrrolo[3,4-d]pyrimidin-6-yl)methyl]morpholin-4-yl]quinoline-8-carbonitrile]"
5,83 nM,"C[C@@H]1CN(c2ccc(C#N)c3nccnc23)C[C@H](CN2Cc3ccc(N4CCN[C@@H](C)C4)cc3C2)O1 [Example 66, 8-[(2R,6S)-2-methyl-6-[[5-[(3S)-3-methylpiperazin-1-yl]isoindolin-2-yl]methyl]morpholin-4-yl]quinoxaline-5-carbonitrile]"
6,75 nM,"C[C@@H]1CN(c2ccc(C#N)c3ncsc23)C[C@H](CN2Cc3ccc(N4CCNCC4)cc3C2)O1 [Example 23, 7-[(2R,6S)-2-methyl-6-[(5-piperazin-1-ylisoindolin-2-yl)methyl]morpholin-4-yl]-1,3-benzothiazole-4-carbonitrile]"
7,67 nM,"C[C@@H]1CN(c2ccc(C#N)n3nccc23)C[C@H](CN2CCc3cc(N4CCNCC4)ccc3C2)O1 [Example 10, 4-[(2R,6S)-2-methyl-6-[(6-piperazin-1-yl-3,4-dihydro-1H-isoquinolin-2-yl)methyl]morpholin-4-yl]pyrazolo[1,5-a]pyridine-7-carbonitrile]"
8,60 nM,"C[C@@H]1CN(c2ccc(C#N)c3ncccc23)C[C@H](CN2Cc3ccc(N4CCNCC4CO)cc3C2)O1 (stereo partly drawn) [Example 73, 5-[(2S,6R)-2-[[5-[2-(hydroxymethyl)piperazin-1-yl]isoindolin-2-yl]methyl]-6-methyl-morpholin-4-yl]quinoline-8-carbonitrile]"
9,55 nM,"C[C@@H]1CN(c2ccc(C#N)c3ncccc23)C[C@H](CN2Cc3ccc(N4CCNCC4)cc3C(O)C2)O1 (stereo partly drawn) [Example 75, 5-[(2S,6R)-2-[(4-hydroxy-6-piperazin-1-yl-3,4-dihydro-1H-isoquinolin-2-yl)methyl]-6-methyl-morpholin-4-yl]quinoline-8-carbonitrile]"
10,55 nM,"C[C@@H]1CN(c2ccc(C#N)c3ncccc23)C[C@H](CN2Cc3ccc(N4CCNCC4)cc3C2)O1 [Example 21, 5-[(2R,6S)-2-methyl-6-[(5-piperazin-1-ylisoindolin-2-yl)methyl]morpholin-4-yl]quinoline-8-carbonitrile]"
11,51 nM,"5-[(2S,6R)-2-[[5-[3-(hydroxymethyl)piperazin-1-yl]isoindolin-2-yl]methyl]-6-methyl-morpholin-4-yl]quinoline-8-carbonitrile [Example 85]"
12,48 nM,"C[C@@H]1CN(c2ccc(C#N)c3ncccc23)C[C@H](CN2Cc3cc(N4CCNCC4)cnc3C2)O1 [Example 20, 5-[(2R,6S)-2-methyl-6-[(3-piperazin-1-yl-5,7-dihydropyrrolo[3,4-b]pyridin-6-yl)methyl]morpholin-4-yl]quinoline-8-carbonitrile]"
13,48 nM,"C[C@@H]1CN(c2ccc(C#N)n3nccc23)C[C@H](CN2Cc3ccc(N4CCN(C)CC4)cc3C2)O1 [Example 17, 4-[(2R,6S)-2-methyl-6-[[5-(4-methylpiperazin-1-yl)isoindolin-2-yl]methyl]morpholin-4-yl]pyrazolo[1,5-a]pyridine-7-carbonitrile]"
